Results taken from ChEMBL document CHEMBL3991601, “The target landscape of clinical kinase drugs” (Science, 2017).
Calls of active or inactive are those of the source. Cut-off read from the data, not from the text of the source, for most assays here: actives have a measured Kd and inactives only a lower limit.

How the values were obtained:
[1] = molecular target: T1, Breakpoint cluster region protein (Homo sapiens, UniProt P11274)
T1 sequence (P11274 whole entry): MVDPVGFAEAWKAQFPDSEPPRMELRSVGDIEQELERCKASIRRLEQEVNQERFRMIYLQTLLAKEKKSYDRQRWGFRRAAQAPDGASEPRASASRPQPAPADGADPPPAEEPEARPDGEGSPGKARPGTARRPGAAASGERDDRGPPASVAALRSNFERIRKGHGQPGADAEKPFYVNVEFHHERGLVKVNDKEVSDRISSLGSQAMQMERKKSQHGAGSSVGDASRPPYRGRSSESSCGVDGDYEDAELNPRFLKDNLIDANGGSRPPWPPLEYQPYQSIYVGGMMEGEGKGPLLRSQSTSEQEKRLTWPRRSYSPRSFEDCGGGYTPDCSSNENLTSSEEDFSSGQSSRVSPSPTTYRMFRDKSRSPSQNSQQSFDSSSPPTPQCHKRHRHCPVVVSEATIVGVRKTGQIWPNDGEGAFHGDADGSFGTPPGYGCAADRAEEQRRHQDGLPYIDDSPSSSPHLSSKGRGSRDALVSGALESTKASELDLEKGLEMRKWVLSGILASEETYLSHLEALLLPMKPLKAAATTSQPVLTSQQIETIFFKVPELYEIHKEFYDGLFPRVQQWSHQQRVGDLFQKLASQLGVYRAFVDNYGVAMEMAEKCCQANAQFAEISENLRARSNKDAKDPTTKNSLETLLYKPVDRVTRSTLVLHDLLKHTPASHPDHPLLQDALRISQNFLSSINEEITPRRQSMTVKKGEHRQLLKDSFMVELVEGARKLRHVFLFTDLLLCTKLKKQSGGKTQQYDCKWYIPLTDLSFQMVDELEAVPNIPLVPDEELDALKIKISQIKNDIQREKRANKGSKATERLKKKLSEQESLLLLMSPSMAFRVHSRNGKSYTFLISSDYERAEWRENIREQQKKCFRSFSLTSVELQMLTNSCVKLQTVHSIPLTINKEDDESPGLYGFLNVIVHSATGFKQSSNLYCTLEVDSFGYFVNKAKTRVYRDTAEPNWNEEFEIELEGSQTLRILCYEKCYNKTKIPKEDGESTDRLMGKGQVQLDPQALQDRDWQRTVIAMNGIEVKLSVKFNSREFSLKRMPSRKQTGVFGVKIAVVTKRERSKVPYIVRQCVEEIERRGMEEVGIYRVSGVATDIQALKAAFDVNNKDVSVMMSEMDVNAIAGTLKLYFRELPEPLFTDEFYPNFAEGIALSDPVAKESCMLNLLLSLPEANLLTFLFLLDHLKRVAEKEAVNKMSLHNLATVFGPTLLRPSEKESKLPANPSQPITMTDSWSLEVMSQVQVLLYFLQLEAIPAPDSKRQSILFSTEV

[2] = molecular target: T2, Scaffold protein ILK (Homo sapiens, UniProt Q13418)
T2 sequence (Q13418 whole entry): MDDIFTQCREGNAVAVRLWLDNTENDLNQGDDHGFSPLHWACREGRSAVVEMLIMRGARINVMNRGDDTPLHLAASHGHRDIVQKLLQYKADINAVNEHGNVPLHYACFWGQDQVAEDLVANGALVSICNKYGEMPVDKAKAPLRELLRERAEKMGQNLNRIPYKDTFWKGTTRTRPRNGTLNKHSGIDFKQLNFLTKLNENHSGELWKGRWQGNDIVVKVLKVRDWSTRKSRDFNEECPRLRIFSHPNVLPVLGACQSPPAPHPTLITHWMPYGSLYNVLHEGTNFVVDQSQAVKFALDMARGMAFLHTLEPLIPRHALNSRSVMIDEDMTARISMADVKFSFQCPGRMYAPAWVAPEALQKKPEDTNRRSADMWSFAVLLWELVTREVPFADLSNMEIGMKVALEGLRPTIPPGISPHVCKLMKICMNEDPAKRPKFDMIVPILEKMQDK

[3] = molecular target: T3, General transcription and DNA repair factor IIH helicase subunit XPD (Homo sapiens, UniProt P18074); details: read-out: Kd apparent; k-562, colo 205, sk-n-be(2) and mv-4-11
T3 sequence (P18074 whole entry): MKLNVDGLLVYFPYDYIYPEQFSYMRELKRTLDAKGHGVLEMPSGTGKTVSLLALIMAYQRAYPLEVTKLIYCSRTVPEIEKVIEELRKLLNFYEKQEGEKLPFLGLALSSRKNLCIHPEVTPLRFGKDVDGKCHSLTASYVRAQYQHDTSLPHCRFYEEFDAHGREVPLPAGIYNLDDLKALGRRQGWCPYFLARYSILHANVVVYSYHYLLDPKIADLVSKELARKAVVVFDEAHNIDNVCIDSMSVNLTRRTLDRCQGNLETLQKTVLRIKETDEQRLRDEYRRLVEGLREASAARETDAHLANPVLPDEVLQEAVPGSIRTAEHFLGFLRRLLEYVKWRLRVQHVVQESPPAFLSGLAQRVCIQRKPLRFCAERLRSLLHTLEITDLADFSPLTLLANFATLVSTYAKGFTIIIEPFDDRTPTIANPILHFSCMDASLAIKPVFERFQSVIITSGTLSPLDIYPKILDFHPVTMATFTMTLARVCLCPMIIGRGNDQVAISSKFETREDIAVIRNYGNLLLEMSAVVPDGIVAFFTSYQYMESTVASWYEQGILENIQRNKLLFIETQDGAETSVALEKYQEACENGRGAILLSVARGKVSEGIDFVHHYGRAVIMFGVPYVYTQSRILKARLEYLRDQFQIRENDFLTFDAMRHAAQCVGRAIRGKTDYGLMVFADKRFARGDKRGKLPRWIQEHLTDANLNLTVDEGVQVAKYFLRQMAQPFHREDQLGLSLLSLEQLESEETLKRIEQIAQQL
Note: in the data inactive means no Kd found up to 30 µM.

For Cc1nc2cc(-c3nn(C(C)C)c4ncnc(N)c34)ccc2o1, the Kd [1] was > 30 µM (inactive), the Kd [2] was > 30 µM (inactive) and the Kd [3] was > 30 µM (inactive).

In the case of O=C1NC(=O)[C@@H](c2cn3c4c(cccc24)CCC3)[C@@H]1c1c[nH]c2ccccc12 [TIVANTINIB], the Kd [1] is reported as > 30 µM (inactive), the Kd [2] is reported as > 30 µM (inactive) and the Kd [3] is reported as > 30 µM (inactive).

For CO[C@H]1C[C@@H]2CC[C@@H](C)[C@@](O)(O2)C(=O)C(=O)N2CCCC[C@H]2C(=O)O[C@H]([C@H](C)C[C@@H]2CC[C@@H](OP(C)(C)=O)[C@H](OC)C2)CC(=O)[C@H](C)/C=C(\C)[C@@H](O)[C@@H](OC)C(=O)[C@H](C)C[C@H](C)/C=C/C=C/C=C/1C [RIDAFOROLIMUS], the Kd [1] was > 30 µM (inactive), the Kd [2] was > 30 µM (inactive) and the Kd [3] was > 30 µM (inactive).

COCC(=O)NC/C=C/c1ccc2ncnc(Nc3ccc(Oc4ccc(C)nc4)c(C)c3)c2c1 [CP-724714] was tested, and the Kd [1] was > 30 µM (inactive), the Kd [2] was > 30 µM (inactive) and the Kd [3] was > 30 µM (inactive).

Cn1ncc(Cl)c1-c1cc(C(=O)N[C@H](CN)Cc2ccc(F)c(F)c2)oc1Cl [UPROSERTIB] was tested, and the Kd [1] was > 30 µM (inactive), the Kd [2] was > 30 µM (inactive) and the Kd [3] was > 30 µM (inactive).

CC(=O)NCC(=O)N1[C@@H]2CC[C@H]1c1ccc(Nc3ncc(C(F)(F)F)c(NC4CCC4)n3)cc12 [PF-03814735] was tested, and the Kd [1] was 10.8 µM (active), the Kd [2] was > 30 µM (inactive) and the Kd [3] was > 30 µM (inactive).

CCCCCCCCCCCCCCCCCCOP(=O)([O-])OC1CC[N+](C)(C)CC1 [PERIFOSINE] was tested, and the Kd [1] was > 30 µM (inactive), the Kd [2] was > 30 µM (inactive) and the Kd [3] was > 30 µM (inactive).

With COc1ncc(-c2ccc3nccc(-c4ccnnc4)c3c2)cc1NS(=O)(=O)c1ccc(F)cc1F [OMIPALISIB] the Kd [1] was > 30 µM (inactive), the Kd [2] was > 30 µM (inactive) and the Kd [3] was > 30 µM (inactive).

C[C@H]1CNCCCN1S(=O)(=O)c1cccc2cncc(F)c12 was tested, and the Kd [1] was > 30 µM (inactive), the Kd [2] was > 30 µM (inactive) and the Kd [3] was > 30 µM (inactive).

In the case of Cc1cnc(NC(=O)Nc2cc(Br)c(C)cc2OC[C@@H]2CNCCO2)cn1 [RABUSERTIB], the Kd [1] is reported as > 30 µM (inactive), the Kd [2] is reported as > 30 µM (inactive) and the Kd [3] is reported as > 30 µM (inactive).

For C[C@@H](Oc1cc(C(=O)Nc2ccc(C(=O)N3CCN(C)CC3)cc2)nnc1N)c1c(Cl)ccc(F)c1Cl, the Kd [1] was > 30 µM (inactive), the Kd [2] was > 30 µM (inactive) and the Kd [3] was > 30 µM (inactive).

For Cc1cccc(-c2nn3c(c2-c2ccnc4ccc(C(N)=O)cc24)CCC3)n1 [GALUNISERTIB], the Kd [1] was > 30 µM (inactive), the Kd [2] was > 30 µM (inactive) and the Kd [3] was > 30 µM (inactive).

In the case of COc1cc([C@@H]2c3cc4c(cc3[C@H](O)[C@H]3COC(=O)[C@@H]23)OCO4)cc(OC)c1OC [AXL-1717], the Kd [1] is reported as > 30 µM (inactive), the Kd [2] is reported as > 30 µM (inactive) and the Kd [3] is reported as > 30 µM (inactive).

For Cc1[nH]c(/C=C2\C(=O)Nc3ccccc32)c(C)c1CCC(=O)O [ORANTINIB], the Kd [1] was > 30 µM (inactive), the Kd [2] was > 30 µM (inactive) and the Kd [3] was > 30 µM (inactive).

COCc1c(-c2ccc(NC(=O)Nc3cc(C(F)(F)F)ccc3F)c(F)c2)c2c(N)ncnn2c1CN1CCOCC1 was tested, and the Kd [1] was 4.21 µM (active), the Kd [2] was > 30 µM (inactive) and the Kd [3] was > 30 µM (inactive).

In the case of CNC(=O)c1ccccc1Sc1ccc2c(/C=C/c3ccccn3)n[nH]c2c1 [AXITINIB], the Kd [1] is reported as 0.188 µM (active), the Kd [2] is reported as > 30 µM (inactive) and the Kd [3] is reported as > 30 µM (inactive).

Nc1ncnc2c1c(-c1cccc(OCc3ccccc3)c1)cn2[C@H]1C[C@@H](CN2CCC2)C1 [AEW-541] was tested, and the Kd [1] was > 30 µM (inactive), the Kd [2] was > 30 µM (inactive) and the Kd [3] was > 30 µM (inactive).

C[C@@H](Oc1cc(-n2cnc3ccc(CN4CCN(C)CC4)cc32)sc1C(N)=O)c1ccccc1C(F)(F)F [GSK-461364] was tested, and the Kd [1] was > 30 µM (inactive), the Kd [2] was > 30 µM (inactive) and the Kd [3] was > 30 µM (inactive).

In the case of CN1CCN(CCOc2cc(OC3CCOCC3)c3c(Nc4c(Cl)ccc5c4OCO5)ncnc3c2)CC1 [SARACATINIB], the Kd [1] is reported as 0.016 µM (active), the Kd [2] is reported as > 30 µM (inactive) and the Kd [3] is reported as > 30 µM (inactive).

For CNC(=O)c1cc(Oc2ccc(NC(=O)Nc3cc(C(C)(C)C)nn3-c3ccc4ncccc4c3)c(F)c2)ccn1 [REBASTINIB], the Kd [1] was 0.381 µM (active), the Kd [2] was > 30 µM (inactive) and the Kd [3] was > 30 µM (inactive).

With C=CC(=O)N1CCC[C@H](n2c(=O)n(-c3ccc(Oc4ccccc4)cc3)c3c(N)ncnc32)C1 the Kd [1] was > 30 µM (inactive), the Kd [2] was > 30 µM (inactive) and the Kd [3] was > 30 µM (inactive).

In the case of COc1ccc(S(=O)(=O)N(C(C)=O)c2ccccc2/C=C/c2cc[n+]([O-])cc2)cc1 [HMN-214], the Kd [1] is reported as > 30 µM (inactive), the Kd [2] is reported as > 30 µM (inactive) and the Kd [3] is reported as > 30 µM (inactive).

COc1cc2c(Nc3ccc(Cl)c(Cl)c3F)ncnc2cc1OC[C@@H]1C[C@@H]2CN(C)C[C@@H]2C1 [TESEVATINIB] was tested, and the Kd [1] was 0.113 µM (active), the Kd [2] was > 30 µM (inactive) and the Kd [3] was > 30 µM (inactive).

For CO[C@H]1C[C@@H]2CC[C@@H](C)[C@@](O)(O2)C(=O)C(=O)N2CCCC[C@H]2C(=O)O[C@H]([C@H](C)C[C@@H]2CC[C@@H](OC(=O)C(C)(CO)CO)[C@H](OC)C2)CC(=O)[C@H](C)/C=C(\C)[C@@H](O)[C@@H](OC)C(=O)[C@H](C)C[C@H](C)/C=C/C=C/C=C/1C [TEMSIROLIMUS], the Kd [1] was > 30 µM (inactive), the Kd [2] was > 30 µM (inactive) and the Kd [3] was > 30 µM (inactive).

In the case of Cn1cnc2c(F)c(Nc3ccc(Br)cc3F)c(C(=O)NOCCO)cc21 [BINIMETINIB], the Kd [1] is reported as > 30 µM (inactive), the Kd [2] is reported as > 30 µM (inactive) and the Kd [3] is reported as > 30 µM (inactive).

With CCOc1cc2ncc(C#N)c(Nc3ccc(F)c(Cl)c3)c2cc1NC(=O)/C=C/CN(C)C [PELITINIB] the Kd [1] was 1.19 µM (active), the Kd [2] was > 30 µM (inactive) and the Kd [3] was > 30 µM (inactive).

In the case of O=c1[nH]ccc2cc(OC3CCNCC3)ccc12 [SAR-407899 FREE BASE], the Kd [1] is reported as > 30 µM (inactive), the Kd [2] is reported as > 30 µM (inactive) and the Kd [3] is reported as > 30 µM (inactive).

For CNC(=O)c1cccc2cc(Oc3ccnc4cc(OCC5(N)CC5)c(OC)cc34)ccc12 [LUCITANIB], the Kd [1] was > 30 µM (inactive), the Kd [2] was > 30 µM (inactive) and the Kd [3] was > 30 µM (inactive).

In the case of C=CC(=O)Nc1cc2c(Nc3ccc(F)c(Cl)c3)ncnc2cc1C#CC(C)(C)N1CCN(C)CC1 [AV-412 FREE BASE], the Kd [1] is reported as > 30 µM (inactive), the Kd [2] is reported as > 30 µM (inactive) and the Kd [3] is reported as > 30 µM (inactive).

In the case of C[C@@H](NC(=O)c1ncnc(N)c1Cl)c1ncc(C(=O)Nc2cc(C(F)(F)F)c(Cl)cn2)s1 [TOVORAFENIB], the Kd [1] is reported as 0.296 µM (active), the Kd [2] is reported as > 30 µM (inactive) and the Kd [3] is reported as > 30 µM (inactive).
